Measured values taken from ChEMBL document CHEMBL6087454, “Identification of Novel Organo-Se BTSA-Based Derivatives as Potent, Reversible, and Selective PPARγ Covalent Modulators for Antidiabetic Drug Discovery” (J Med Chem, 2025).
Active and inactive are the calls of the source. The calls are words filed in the database; no cut-off is given here.

Assays:
[1] = target: T1, Peroxisome proliferator-activated receptor gamma (Homo sapiens) (UniProt P37231); assay: Reversible covalent binding affinity to recombinant GST-tagged human PPAR-gamma ligand binding domain (E235 to Y505 residues) extracted from Escherichia coli BL21 (DE3) cells at 500 nM measured upto 240 mins by TR-FRET assay; details: filed as partial agonist
T1 sequence (whole entry): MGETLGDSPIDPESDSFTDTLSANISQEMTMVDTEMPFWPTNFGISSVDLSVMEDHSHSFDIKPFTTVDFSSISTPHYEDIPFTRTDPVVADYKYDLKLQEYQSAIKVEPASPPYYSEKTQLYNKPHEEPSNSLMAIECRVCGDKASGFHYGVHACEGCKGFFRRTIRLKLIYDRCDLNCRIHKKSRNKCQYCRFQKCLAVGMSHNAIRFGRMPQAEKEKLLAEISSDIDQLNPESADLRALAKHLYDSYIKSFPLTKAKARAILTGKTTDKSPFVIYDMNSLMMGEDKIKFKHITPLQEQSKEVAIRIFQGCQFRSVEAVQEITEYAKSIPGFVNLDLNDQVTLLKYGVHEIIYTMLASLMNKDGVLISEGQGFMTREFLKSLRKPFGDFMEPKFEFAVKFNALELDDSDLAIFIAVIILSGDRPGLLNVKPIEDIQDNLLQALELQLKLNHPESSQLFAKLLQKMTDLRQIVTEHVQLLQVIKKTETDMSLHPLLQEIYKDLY

Mus musculus [2] = assay: Antidiabetic activity in male db/db mouse model assessed as increase in Glut4 protein abundance in liver at 2.5 to 10 mg/kg/day, ip administered for 4 weeks by Western blotting analysis; format: functional, organism-based; details: dose 2.5-10 mg/kg/day
[3] = Toxicity in male db/db mouse model assessed as effect on liver weight at 2.5 to 5 mg/kg, ip administered for 4 weeks; format: organism-based; details: in vivo, 672 h, dose 2.5-5 mg/kg
Mus musculus [4] = assay: Antidiabetic activity in male db/db mouse model assessed as downregulation of CD36 gene expression in white adipose tissue at 2.5 to 10 mg/kg/day, ip administered for 4 weeks by RT-qPCR analysis; format: functional, organism-based; details: dose 2.5-10 mg/kg/day
[5] = Toxicity in male db/db mouse model assessed as effect on liver morphology at 2.5 to 5 mg/kg, ip administered for 4 weeks; format: organism-based; details: in vivo, 672 h, dose 2.5-5 mg/kg
3T3-L1 = assay: Inhibition of adipogenesis in mouse 3T3-L1 cells assessed as downregulation of C/EBPalpha gene expression at 1 uM measured after 48 hrs by RT-qPCR analysis; format: functional, cell-based
Mus musculus [6] = assay: Antidiabetic activity in male db/db mouse model assessed as upregulation of adiponectin gene expression in liver at 2.5 to 10 mg/kg/day, ip administered for 4 weeks by RT-qPCR analysis; format: functional, organism-based; details: dose 2.5-10 mg/kg/day

Cc1ccc(S(=O)(=O)Oc2ccc(S3(=O)=N[Se]c4cc(OS(=O)(=O)c5ccc(C)cc5)ccc43)cc2)cc1 (configuration not stated)
Activity [1]: Active
Activity (Mus musculus [2]): Active
Activity [3]: Non-toxic
Activity (Mus musculus [4]): Active
Activity [5]: Non-toxic
inhibition (3T3-L1): Active
Activity (Mus musculus [6]): Active
